Reference: US20260053782A1, “TREATMENT REGIMENS FOR PARKINSON'S DISEASE” (BIAL - PORTELA & CA, S.A., priority 2022, published 2026)

Legend:
[1] = cited from earlier work
[2] = test system: patients suffering from early idiopathic Parkinson's disease; conditions: addition of entacapone vs levodopa-only therapy; levodopa-naïve patients; cited from earlier work
[3] = test system: Parkinson's disease patients with end-of-dose motor fluctuations; assay: 12-hour patient ON/OFF monitoring registered by investigators on pharmacokinetics days; assay type: in vivo, human; conditions: addition of opicapone; overall summary
Description: Subjects were aged ≥30 years with a clinical diagnosis of idiopathic Parkinson's disease according to the United Kingdom Parkinson's Disease Society Brain Bank Clinical Diagnostic Criteria with disease severity stage 1-3 (according to modified Hoehn & Yahr staging) at ON and with end-of-dose motor fluctuations and signs of “wearing off”. Subjects were receiving treatment with levodopa/DDCI for at least 1 year with clear clinical improvement.
Clinical and safety/tolerability outcomes were also assessed as exploratory secondary outcomes. Clinical outcomes included ON and OFF-time assessed using patient-rated tools. The timing of ON and OFF state was registered (in real time) by the investigators during the matching 12-hour pharmacokinetic evaluation, as such applied on the pharmacokinetics days only), and patients also completed 24-hour Hauser ON/OFF diary charts (in 30 minute blocks) during the three days before each pharmacokinetic visit. […] In addition, the patient global impression of change (PGI-C) of opicapone 50 mg was evaluated at the end of the LD/CD 400/100 mg plus opicapone treatment, compared to before the start of the opicapone treatment. […]
All study assessments were evaluated for each LD/CD 400/100 mg plus 50 mg opicapone treatment regimen, compared to the LD/CD 500/125 mg without opicapone regimen.

[4] = Levodopa pharmacokinetics over 12 hours after 2 weeks of each LD/CD regimen with or without opicapone 50 mg (Phase II open-label trial); conditions: human, in vivo
Experimental: The invention was discovered through a Phase IL, randomized, open-label trial evaluating the effect of opicapone (50 mg once-daily) on L-DOPA pharmacokinetics in Parkinson's disease patients with end-of-dose motor fluctuations taking different levodopa/carbidopa (LD/CD) sparing regimens (EudraCT number: 2020-003139-12).
Following screening, all subjects received an LD/CD dose and regimen of 100/25 mg QD5 (giving a total daily dose of 500/125 mg) fixed every 3 hours (from 8:00 to 20:00) for 14±2 days. This is the reference regimen. […]
The pharmacokinetic parameters assessed for each of the regimens included maximum observed plasma concentration (Cmax), time to achieve peak plasma levels (tmax), minimum observed plasma concentration (Cmin), plasma elimination half-life (t1/2), area under the curve (AUC) and fluctuation index (FI, as an expression of peak-to-trough fluctuation, Cmax and Cmin relative to average concentration Cavg).

## N[C@@H](Cc1ccc(O)c(O)c1)C(=O)O [levodopa, L-3,4-dihydroxyphenylalanine]
[1]
  half-life of oral levodopa: 1 to 1.5 h

## CCN(CC)C(=O)/C(C#N)=C/c1cc(O)c(O)c([N+](=O)[O-])c1 [entacapone]
[2]
  frequency of dyskinesia: increased frequency of dyskinesia

## Cc1c(Cl)c(C)[n+]([O-])c(Cl)c1-c1noc(-c2cc(O)c(O)c([N+](=O)[O-])c2)n1 [opicapone]
[3]
  OFF time: reduced OFF time
  ON time: increased ON time
[4]
  difference in levodopa tmax: no impact
  increase in levodopa t1/2: at least doubled
